According to ChEMBL document CHEMBL1148727, “Discovery of 1,4-dihydroxy-2-naphthoate [corrected] prenyltransferase inhibitors: new drug leads for multidrug-resistant gram-positive pathogens” (2007):
Converted amounts (≈) assume the structure as drawn.

Columns and labels:
Assay type in all cases: functional
Mycobacterium avium = assay: Antibacterial activity against Mycobacterium avium Flamingo after 18 hrs by agar plate dilution method
[1] = test system: Mycobacterium intracellulare; assay: Antibacterial activity against Mycobacterium intracellular ATCC 15984 after 18 hrs by agar plate dilution method; settings: ATCC 15984, 18 h
[2] = test system: Mycolicibacterium fortuitum; assay: Antibacterial activity against Mycobacterium fortuitum NIHJ1615 after 18 hrs by agar plate dilution method
[3] = test system: Mycolicibacterium smegmatis; assay: Antibacterial activity against Mycobacterium smegmatis Takeo after 18 hrs by agar plate dilution method
[4] = test system: Mycobacterium tuberculosis; assay: Antibacterial activity against Mycobacterium tuberculosis H37Rv after 18 hrs by agar plate dilution method
Mycolicibacterium aurum = assay: Antibacterial activity against Mycobacterium aurum after 18 hrs by agar plate dilution method
Staphylococcus aureus [5] = assay: Antibacterial activity against methicillin-resistant Staphylococcus aureus Mu50 after 18 hrs by agar plate dilution method; settings: Mu50, 18 h
Enterococcus faecalis [6] = assay: Antibacterial activity against vancomycin-resistant Enterococcus faecalis NCTC-12201 after 18 hrs by agar plate dilution method
Enterococcus faecalis [7] = assay: Antibacterial activity against vancomycin-resistant Enterococcus faecalis NCTC-12203 after 18 hrs by agar plate dilution method
Staphylococcus aureus [8] = assay: Antibacterial activity against Staphylococcus aureus FDA209P after 18 hrs by agar plate dilution method
Staphylococcus aureus [9] = assay: Antibacterial activity against Staphylococcus aureus Smith after 18 hrs by agar plate dilution method
Pseudomonas aeruginosa = assay: Antibacterial activity against Pseudomonas aeruginosa 46001 by agar plate dilution method
Staphylococcus aureus [10] = assay: Antibacterial activity against Linezolid and methicillin-resistant Staphylococcus aureus 06 after 18 hrs by agar plate dilution method
Escherichia coli = assay: Antibacterial activity against Escherichia coli NIHJ JC2 by agar plate dilution method
Klebsiella pneumoniae = assay: Antibacterial activity against Klebsiella pneumoniae NCTN9632 by agar plate dilution method
Proteus mirabilis = assay: Antibacterial activity against Proteus mirabilis IFO3849 by agar plate dilution method
Staphylococcus aureus [11] = assay: Antibacterial activity against methicillin-resistant Staphylococcus aureus after 18 hrs by agar plate dilution method
Staphylococcus aureus [12] = assay: Antibacterial activity against vancomycin-resistant Staphylococcus aureus 70 after 18 hrs by agar plate dilution method
Staphylococcus aureus [13] = assay: Antibacterial activity against methicillin-resistant Staphylococcus aureus 92-1191 after 18 hrs by agar plate dilution method
Staphylococcus aureus [14] = assay: Antibacterial activity against Staphylococcus aureus macrolide-resistance after 18 hrs by agar plate dilution method

SMILES | MIC (Mycobacterium avium) [µg/mL] | MIC [1] [µg/mL] | MIC [2] [µg/mL] | MIC [3] [µg/mL] | MIC [4] [µg/mL] | MIC (Mycolicibacterium aurum) [µg/mL] | MIC (Staphylococcus aureus [5]) [µg/mL] | MIC (Enterococcus faecalis [6]) [µg/mL] | MIC (Enterococcus faecalis [7]) [µg/mL] | MIC (Staphylococcus aureus [8]) [µg/mL] | MIC (Staphylococcus aureus [9]) [µg/mL] | MIC (Pseudomonas aeruginosa) [µg/mL] | MIC (Staphylococcus aureus [10]) [µg/mL] | MIC (Escherichia coli) [µg/mL] | MIC (Klebsiella pneumoniae) [µg/mL] | MIC (Proteus mirabilis) [µg/mL] | MIC (Staphylococcus aureus [11]) [µg/mL] | MIC (Staphylococcus aureus [12]) [µg/mL] | MIC (Staphylococcus aureus [13]) [µg/mL] | MIC (Staphylococcus aureus [14]) [µg/mL]
C=CCN(C)CCCCCCCCOc1ccc(C(=O)c2ccc(Cl)cc2)c(O)c1 | 6.3 (≈ 14.7 µM) | 6.3 (≈ 14.7 µM) | 12.5 (≈ 29.1 µM) | 12.5 (≈ 29.1 µM) | 1.5 (≈ 3.49 µM) | 6.3 (≈ 14.7 µM) | > 12.5 | > 12.5 | > 12.5 | > 12.5 | > 12.5 | – | – | – | – | – | – | – | – | –
CC(=O)NC[C@H]1CN(c2ccc(N3CCOCC3)c(F)c2)C(=O)O1 [LINEZOLID] | – | – | – | – | – | – | – | – | – | – | – | > 128 | 32 (≈ 94.9 µM) | 128 (≈ 379 µM) | > 128 | 128 (≈ 379 µM) | – | – | – | –
NNC(=O)c1ccncc1 [ISONIAZID] | > 25 | 12.5 (≈ 91.1 µM) | 6.3 (≈ 45.9 µM) | 12.5 (≈ 91.1 µM) | 0.1 (≈ 0.729 µM) | 6.3 (≈ 45.9 µM) | – | – | – | – | – | – | – | – | – | – | – | – | – | –
CO[C@H]1/C=C/O[C@@]2(C)Oc3c(C)c(O)c4c(O)c(c(/C=N/N5CCN(C)CC5)c(O)c4c3C2=O)NC(=O)/C(C)=C\C=C\[C@H](C)[C@H](O)[C@@H](C)[C@@H](O)[C@@H](C)[C@H](OC(C)=O)[C@@H]1C [RIFAMPIN] | 3.1 (≈ 3.77 µM) | 3.1 (≈ 3.77 µM) | > 25 | > 25 | 0.2 (≈ 0.243 µM) | 0.78 (≈ 0.948 µM) | – | – | – | – | – | – | – | – | – | – | – | – | – | –
CN(CCCOC/C=C/COc1ccc(C(=O)c2ccc(Cl)cc2)c(O)c1)CCc1ccc(F)cc1 | – | – | – | – | 12.5 (≈ 24.4 µM) | – | 8 (≈ 15.6 µM) | 8 (≈ 15.6 µM) | 2 (≈ 3.91 µM) | 4 (≈ 7.81 µM) | 8 (≈ 15.6 µM) | > 128 | 8 (≈ 15.6 µM) | > 128 | > 128 | > 128 | 4 (≈ 7.81 µM) | 4 (≈ 7.81 µM) | 4 (≈ 7.81 µM) | 4 (≈ 7.81 µM)
CN[C@H](CC(C)C)C(=O)N[C@H]1C(=O)N[C@@H](CC(N)=O)C(=O)N[C@H]2C(=O)N[C@H]3C(=O)N[C@H](C(=O)N[C@H](C(=O)O)c4cc(O)cc(O)c4-c4cc3ccc4O)[C@H](O)c3ccc(c(Cl)c3)Oc3cc2cc(c3O[C@@H]2O[C@H](CO)[C@@H](O)[C@H](O)[C@H]2O[C@H]2C[C@](C)(N)[C@H](O)[C@H](C)O2)Oc2ccc(cc2Cl)[C@H]1O [VANCOMYCIN] | – | – | – | – | – | – | – | > 128 | > 128 | – | – | > 128 | – | > 128 | > 128 | > 128 | – | – | – | –
